Measured values from the METLIN SMRT retention time set (Domingo-Almenara et al. 2019).

Test: gradient 5% acetonitrile 3 min, to 50% in 2 min, to 85% in 15 min, held 3 min, 100 µL/min
Conditions: column: Zorbax Extend-C18 2.1 x 50 mm; eluents: water / acetonitrile, 0.1% formic acid
Method in brief: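 Retention times come from adduct peaks that were picked computationally and then checked by hand. The standards, pure and pooled in mixtures of ~100 molecules, were run on a Zorbax Extend-C18 column (2.1 × 50 mm, 1.8 μm) at 100 μL/min with water and acetonitrile, each with 0.1% formic acid. Detection was by quadrupole time-of-flight mass spectrometry in positive and negative ionization mode, with a dead volume of 40 μL and a dwell volume of 900 μL.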

| Compound | RP-LC retention time [s] |
| --- | --- |
| CN1c2cc(Cl)ccc2C(=O)NC12CCN(C(=O)NCc1ccccc1)CC2 | 795 |
| COc1ccc(NC(=O)c2[nH]c3cc(C)sc3c2CN(C)C)cc1F | 680 |
| CCCn1cc(-c2ccncc2)cc1C(=O)NC1CC1 | 579 |
| Cc1ccc(Nc2c(-c3ccc(N(C)C)cc3)nc3cnccn23)c(Br)c1 | 990 |
| Clc1nc(NCCc2ccccc2)c2cn[nH]c2n1 | 827 |
| CC(=O)Nc1ccc(NC(=O)C2CCCN(c3ccc(=O)n(-c4ccc(C)c(Cl)c4)n3)C2)cc1 (stereo unspecified) | 768 |
| CCN1C(=O)CCc2cc(NS(=O)(=O)c3c(C)cccc3Cl)ccc21 | 846 |
| CCc1cc(C(=O)N2CCCC2)nc2cc(-c3ccsc3)nn12 | 950 |
| Cc1nc(N2CCN(c3ccccn3)CC2)nc2c1C(=O)CC(/C=C/c1ccccc1)C2 (stereo unspecified) | 856 |
| COCc1nc(C2CCN(S(=O)(=O)c3ccc(C#N)cc3)C2)no1 (stereo unspecified) | 785 |
| Cc1ccc(CNC(=O)C2CCN(S(=O)(=O)c3ccc4c(c3)CCCC(=O)N4)CC2)cc1 | 752 |
| O=C(c1cc(S(=O)(=O)N2CCCC(C(=O)N3CCCC3)C2)c[nH]1)N1CCCCCC1 (stereo unspecified) | 733 |
| CSc1cccc(NC(=O)NCC(c2cccnc2)c2cn(C)c3ccccc23)c1 (stereo unspecified) | 733 |
| CCn1cnc(S(=O)(=O)N2CCCC(C(=O)N3CCN(c4ccccn4)CC3)C2)c1 (stereo unspecified) | 575 |
| COc1ccc(N2CCN(c3ncc(S(=O)(=O)c4ccc(C)c(C)c4)c(N)n3)CC2)cc1 | 966 |
| O=C(COc1ccc(-c2nnc3n2CCCC3)cc1)N1CCc2ccccc21 | 790 |
| OC(CN1CCN(c2ncccn2)CC1)c1ccc(Br)cc1 (stereo unspecified) | 607 |
| CC(C)Oc1ccc(CNC(=O)CN2CCN(Cc3ccc(F)cc3)C2=O)cc1 | 865 |

| Compound | RP-LC retention time [s] |
| --- | --- |
| CCNS(=O)(=O)c1cc(-c2c(CC)noc2NC(C)=O)ccc1OC | 668 |
| CCc1ccc(NC(=O)N2CCN(CCn3c(CC)nc4cccnc43)CC2)cc1 | 632 |
| Cc1ccc(-c2nc(N)n(S(=O)(=O)c3ccc(C)cc3)n2)cc1 | 969 |
| COCC(C)(O)CNC(=O)NC1CCCCC1 (stereo unspecified) | 596 |
| CCn1nccc1-c1cccc(-c2noc(-c3ccc4cc[nH]c4c3)n2)c1 | 1140 |
| Brc1ccccc1Cc1nc(-c2ccn3cnnc3c2)no1 | 806 |
| CCN(CC)CCN(CC(=O)N1CCNCC1)S(=O)(=O)c1ccc(C)c(C)c1 | 576 |
| O=C(c1ccc2ccnc(N3CCN(c4ccc(Cl)cc4)CC3)c2c1)N1CCCCCC1 | 986 |
| Cc1cccc(NC(=O)Cn2cnc3c(sc4nc(-c5ccccc5)ccc43)c2=O)c1 | 1040 |
| COc1ccc(-c2nnc(COc3ccc(NC(=O)C(NC(=O)c4ccco4)C(C)C)cc3)o2)cc1 (stereo unspecified) | 854 |
| COc1ccc(Cn2nc3ccc(S(=O)(=O)N4CCCCCC4)cn3c2=O)cc1F | 681 |
| COc1cc(OC)cc(-c2noc(-c3nn(-c4ccc(C)c(C)c4)ccc3=O)n2)c1 | 979 |
| Cc1ccc(C)c(C(=O)N2CCCC(COc3ccc(C(=O)NC(C)C)cc3)C2)c1 (stereo unspecified) | 916 |
| CCNc1cc(N2CCC(CCC(=O)NCc3ccccc3C)CC2)ncn1 | 651 |
| CCCN1CCN(C(=O)CC(C)S(=O)(=O)c2ccc3c(c2)CCN3C(C)=O)CC1 (stereo unspecified) | 586 |
| CCn1c(C(=O)N2CCN(c3cccc(C)c3C)CC2)cc2sccc21 | 1070 |
| COC(=O)c1ccc(NC(=O)C2CCCN(S(=O)(=O)c3ccc(OC)c(C)c3)C2)cc1 (stereo unspecified) | 1000 |
| Cc1cc(C)c(S(=O)(=O)NCCc2cn(CC(C)C)c3ncccc23)cc1C | 1040 |
